According to patent US5244898A, “Benzoheterocyclic compounds” (Otsuka Pharmaceutical Co., Ltd., priority 1991, dated 1993):
Where a name gives a salt, the structure may show the parent alone.

Key:
V1 Receptor = V1 Receptor (Rattus norvegicus, UniProt P30560); experiment: V1 Receptor Binding Assay ([3H]-Arg-vasopressin, rat liver plasma membrane); settings: 37° C., 10 minutes, pH 8.0
Description: After incubation, the mixture is filtered three times using the glass filter (GF/F) so as to separate the membrane preparation combining with vasopressin and then washed with the buffer (5 ml). This glass filter is taken out and mixed with liquid scintillation cocktail. The amount of [^3 H]-vasopressin combining with the membrane is measured by liquid scintillation counter and the rate of the inhibitory effect of the test compound is estimated according to the following equation.
(§1) C1 : The amount of [^3 H]-vasopressin combining with the membrane in the presence of the test compound of a known amount.
(§2) C0 : The amount of [^3 H]-vasopressin combining with the membrane in the absence of the test compound.
B1 : The amount of [^3 H]-vasopressin combining with the membrane in the presence of the excess amount of vasopressin (10^-6 M).
(§3) The results are expressed as IC50 value, which is the concentration of the test compound required to achieve the inhibitory effect in the rate of 50%.

V2 Receptor = molecular target: T1, V2 Receptor (Rattus norvegicus, UniProt Q00788); experiment: V2 Receptor Binding Assay ([3H]-Arg-vasopressin, rat kidney plasma membrane); settings: 4° C., pH 8.0
T1 construct: rat kidney plasma membrane preparations; from tissue; host or cells: rat kidney plasma membranes
T1 sequence (Q00788 whole entry): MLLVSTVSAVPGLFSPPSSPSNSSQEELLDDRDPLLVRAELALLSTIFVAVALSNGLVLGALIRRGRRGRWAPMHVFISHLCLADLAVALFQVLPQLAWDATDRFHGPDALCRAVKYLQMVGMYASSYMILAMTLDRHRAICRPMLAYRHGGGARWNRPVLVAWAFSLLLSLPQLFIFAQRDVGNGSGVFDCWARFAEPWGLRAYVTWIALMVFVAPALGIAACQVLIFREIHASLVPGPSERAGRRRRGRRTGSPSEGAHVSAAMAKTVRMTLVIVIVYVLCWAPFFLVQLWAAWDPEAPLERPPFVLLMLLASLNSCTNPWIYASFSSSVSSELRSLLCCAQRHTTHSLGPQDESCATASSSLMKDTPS
Description: Chem., 253, 3211 (1978)], the plasma membrane (100000 dpm, 4×10^-10M) of [^3 H]-Arg-vasopressin and a test compound (0.6 mg, 10^-10 -10^-5 M) are incubated at 4° C. for 3 hours in 100 mM Tris-HCl buffer pH: 8.0 (250 μl ) containing 5 mM MgCl2, 1 mM EDTA and 0.1 % BSA. After incubation, the mixture is filtered using the glass filter (GF/F) so as to separate the membrane preparation combining with vasopressin and then washed twice with the buffer (5 ml). This glass filter is taken out and mixed with liquid scintillation cocktail. The amount of [^3 H]-vasopressin combining with the membrane is measured by liquid scintillation counter and the rate of the inhibitory effect of the test compound is estimated according to the following equation. [formula]
as §1, §2
B1 : The amount of [3H-vasopressin combining with the membrane in the presence of the excess amount of vasopressin (10^-6 M).
as §3

Chain of V1 Receptor (P30560 whole entry): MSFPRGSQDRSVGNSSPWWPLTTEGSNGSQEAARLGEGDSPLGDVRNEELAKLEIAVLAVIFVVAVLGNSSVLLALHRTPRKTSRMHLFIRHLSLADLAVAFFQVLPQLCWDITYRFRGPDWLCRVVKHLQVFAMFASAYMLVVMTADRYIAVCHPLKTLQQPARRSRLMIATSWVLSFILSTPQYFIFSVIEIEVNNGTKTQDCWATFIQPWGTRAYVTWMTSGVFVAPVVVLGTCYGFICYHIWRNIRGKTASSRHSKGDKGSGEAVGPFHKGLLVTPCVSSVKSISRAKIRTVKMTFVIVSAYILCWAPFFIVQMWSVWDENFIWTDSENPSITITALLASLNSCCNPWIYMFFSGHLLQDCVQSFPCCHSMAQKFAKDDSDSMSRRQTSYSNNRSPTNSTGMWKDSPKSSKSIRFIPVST

| SMILES | IC50 (V1 Receptor) [nM] | IC50 (V2 Receptor) [nM] |
| --- | --- | --- |
| COc1cc(NC(=O)c2ccccc2C)ccc1C(=O)N1CCCC(CN2CCN(C)CC2)c2cc(F)ccc21 (stereo not drawn) [Test Compound 46, 5-[(4-Methyl-I-piperazinyl)methyl]-7-fluoro-1-[2-methoxy-4-(2-methylbenzoylamino)benzoyl]-2,3,4,5-tetrahydro-1H-benzazepine] | 89 | 9 |
| Cc1ccccc1C(=O)Nc1ccc(C(=O)N2CCCC(CC(=O)N3CCCC3)c3cc(F)ccc32)cc1 (stereo not drawn) [Test Compound 50, 5-[(1-Pyrrolidinyl)carbonylmethyl]-7-fluoro-1-[4-(2-methylbenzoylamino)benzoyl]-2,3,4,5-tetrahydro-1H-benzazepine] | 110 | 15 |
| COc1cc(NC(=O)c2ccccc2C)ccc1C(=O)N1CCCC(OC(=O)[C@@H](N)CCCCN)c2cc(Cl)ccc21 (stereo partly drawn) [Test Compound 29, 5-(L-Lysyloxy)-7-chloro-1-[2-methoxy-4-(2-methylbenzoylamino)benzoyl]-2,3,4,5-tetrahydro-1H-benzazepine dihydrochloride] | 40 | 6 |
